Legend:
[1] = system: Male obese-diabetic viable yellow (A^vy) mice; assay: Serum/blood glucose after 14 days of feeding compound admixed in chow; type: in vivo
Experimental: (§1) Male obese-diabetic viable yellow (A^vy) mice were divided into two groups of 6 each. One group was fed repelletized Purina 5008 Chow and the second group was fed a repelletized chow consisting of Purina 5008 Chow, admixed with varying doses of the candidate compound. Blood samples were taken before the experiment was initiated and 14 days after initiation. Body weight and food consumption were monitored. The blood glucose level after 14 days of treatment was measured and recorded as a percent of the initial value, compared to the untreated control (first) group. The results are presented in the table below and include the dose of the candidate compound as a weight percent of the amount incorporated into the diet. The positive control is a known hypoglycemic agent (J. Med. Chem. 35:2617, 1992) administered in the same way as a compound of the present invention.

[2] = system: Male obese-diabetic viable yellow (A^vy) mice; assay: Serum/plasma triglycerides after 14 days in the same feeding study; type: in vivo; settings: untreated about 4 mmol/mL
Experimental: as §1
In the same feeding study described above, plasma triglycerides were measured against a glycerol standard using reagents from Sigma Kit No. 339 (St. Louis, Mo.), adapted for assay on the Monarch System (Instrumentation Laboratory, Lexington, Mass.). Day 14 levels are recorded below as mM of triglycerides per mL. Serum triglyceride values for untreated animals averaged about 4 mmol/mL.

[3] = dose 0.03 (mg/100 g food) in diet
[4] = dose 0.01 (mg/100 g food) in diet

Row | Compound | melting point | Serum Glucose after 14 days % of day 0 value [1, 3] | Serum Triglyceride after 14 days [2, 3] | other results
1 | 4-[2-(2-Phenyl-4-oxazolyl)ethoxy]benzyl-N-CBZ-L-serine [Example No. 7] | – | 34 % of day 0 value | 0.4 mM | –
2 | Cc1oc(-c2ccccc2)nc1CCOc1ccc(CC(NC(=O)OCc2ccccc2)C(=O)O)cc1 (racemic) [Example No. 9, O-[2-(5-Methyl-2-phenyl-4-oxazolyl)ethyl]-N-CBZ-D,L-tyrosine] | 142 to 143 °C | 66 % of day 0 value | 2.5 mM | –
3 | N[C@@H](Cc1ccc(OCCc2coc(-c3ccccc3)n2)cc1)C(=O)O [Example 3, O-[2-(2-Phenyl-4-oxazolyl)ethyl]-L-tyrosine] | 231 to 235 °C | – | – | –
4 | O=C(N[C@@H](Cc1ccc(OCCc2coc(-c3ccccc3)n2)cc1)C(=O)O)c1ccc(Cl)cc1 [Example 13, O-[2-(2-Phenyl-4-oxazolyl)ethyl]-N-4-chlorobenzoyl-L-tyrosine] | 158 to 161 °C | – | – | –
5 | O=C(N[C@@H](Cc1ccc(OCCc2cccc3ccccc23)cc1)C(=O)O)OCc1ccccc1 [Example 15, O-[2-(1-Naphthyl)ethyl]-N-CBZ-L-tyrosine] | 80 to 83 °C | – | – | –
6 | O=C(N[C@@H](Cc1ccc(OCCc2coc(-c3ccccc3)n2)cc1)C(=O)O)OCc1ccc(Br)cc1 [Example 16, O-[2-(2-Phenyl-4-oxazolyl)ethyl]-N-(4-bromobenzyloxycarbonyl)-L-tyrosine] | 173 to 176 °C | – | – | –
7 | O=C(N[C@@H](Cc1ccc(OCCc2coc(-c3ccccc3)n2)cc1)C(=O)O)OCc1ccc(C(F)(F)F)cc1 [Example 17, O-[2-(2-Phenyl-4-oxazolyl)ethyl]-N-(4-trifluoromethylbenzyloxycarbonyl)-L-Tyrosine] | 177 to 180.5 °C | – | – | –
8 | COc1ccc(COC(=O)N[C@@H](Cc2ccc(OCCc3coc(-c4ccccc4)n3)cc2)C(=O)O)cc1 [Example 18, O-[2-(2-Phenyl-4-oxazolyl)ethyl]-N-(4-methoxybenzyloxycarbonyl)-L-tyrosine] | 132.5 to 135.5 °C | – | – | –
9 | CCCCc1ccc(COC(=O)N[C@@H](Cc2ccc(OCCc3coc(-c4ccccc4)n3)cc2)C(=O)O)cc1 [Example 19, O-[2-(2-Phenyl-4-oxazolyl)ethyl]-N-(4-n-Butylbenzyloxycarbonyl)-L-tyrosine] | 86 to 89 °C | – | – | –
10 | O=C(N[C@@H](Cc1ccc(OCCc2coc(-c3ccccc3)n2)cc1)C(=O)O)c1ccccc1 [Example No. 4, O-[2-(2-Phenyl-4-oxazolyl)ethyl]-N-BZ-L-tyrosine] | – | 60 % of day 0 value | 1.5 mM | –
11 | Cc1ccc(C(=O)N[C@@H](Cc2ccc(OCCc3coc(-c4ccccc4)n3)cc2)C(=O)O)cc1 [Example No. 6, O-[2-(2-Phenyl-4-oxazolyl)ethyl]-N-4-methylbenzoyl-L-tyrosine] | 180 to 182 °C | 65 % of day 0 value | 2.3 mM | –
12 | CN(C(=O)OCc1ccccc1)[C@@H](Cc1ccc(OCCc2coc(-c3ccccc3)n2)cc1)C(=O)O [Example No. 8, O-[2-(2-Phenyl-4-oxazolyl)ethyl]-N-methyl-N-CBZ-L-tyrosine] | – | – | 3.6 mM | Serum Glucose after 14 days % of day 0 value ([1]; dose 0.06 (mg/100 g food) in diet): 75 % of day 0 value
13 | NC(=O)[C@H](Cc1ccc(OCCc2coc(-c3ccccc3)n2)cc1)NC(=O)OCc1ccccc1 [Example No. 10, O-[2-(2-Phenyl-4-oxazolyl)ethyl]-N-CBZ-L-tyrosine carboxamide] | – | 88 % of day 0 value | – | –
14 | Cc1oc(-c2ccccc2)nc1CCOc1ccc(C[C@H](NC(=O)OCc2ccccc2)C(=O)O)cc1 [Example No. 22, O-[2-(5-Methyl-2-phenyl-4-oxazolyl)ethyl]-N-CBZ-L-tyrosine] | 75 to 95 °C | 53 % of day 0 value | – | –
15 | O=C(N[C@@H](COCc1cccc(OCCc2coc(-c3ccccc3)n2)c1)C(=O)O)OCc1ccccc1 [Example No. 24, O-(3-(2-(2-Phenyl-4-oxazolyl)ethoxy]benzyl)-N-CBZ serine] | 55 to 57 °C | – | – | Serum Glucose after 14 days % of day 0 value [1, 4]: 88 % of day 0 value; Serum Triglyceride after 14 days [2, 4]: 0.3 mM
16 | CC(C)(Oc1ccc(Cl)cc1)C(=O)O [clofibric acid, reference compound] | – | – | – | Serum Triglyceride after 14 days ([2]; dose 0.10 (mg/100 g food) in diet): 1.9 mM

The next lines start with results.

Row | melting point | Compound | Serum Glucose after 14 days % of day 0 value [1, 3] | Serum Triglyceride after 14 days [2, 3] | other results
17 | 198 to 199 °C | N[C@@H](Cc1ccc(OCCc2coc(-c3ccccc3)n2)cc1)C(=O)N(O)C(=O)OCc1ccccc1 [Example 11, O-[2-(2-Phenyl-4-oxazolyl)ethyl]-N-CBZ-L-tyrosine hydroxamic acid] | – | – | –
18 | 94 to 97 °C | O=C(COc1ccccc1)N[C@@H](Cc1ccc(OCCc2coc(-c3ccccc3)n2)cc1)C(=O)O [Example 12, O-[2-(2-Phenyl-4-oxazolyl)ethyl]-N-phenoxyacetyl-L-tyrosine] | – | – | –
19 | 141 to 143 °C | O=C(O)[C@H](Cc1ccc(OCCc2coc(-c3ccccc3)n2)cc1)NS(=O)(=O)Cc1ccccc1 [Example 14, O-[2-(2-Phenyl-4-oxazolyl)ethyl]-N-phenylmethylsulfonyl-L-tyrosine] | – | – | –
20 | 196.5 to 198 °C | O=C(NCc1ccccc1)N[C@@H](Cc1ccc(OCCc2coc(-c3ccccc3)n2)cc1)C(=O)O [Example 20, O-[2-(2-Phenyl-4-oxazolyl)ethyl]-N-(N′-Benzylcarbamoyl)-L-tyrosine] | – | – | –
21 | 105 to 111 °C | O=C(N[C@@H](Cc1ccc(OCCc2coc(-c3ccccc3)n2)cc1)C(=O)O)OCc1ccccc1 [Example No. 1, O-[2-(2-Phenyl-4-oxazolyl)ethyl]-N-CBZ-L-tyrosine] | 49 % of day 0 value | 1.3 mM | –
22 | 204 to 207 °C | O=C(N[C@@H](Cc1ccc(OCCc2coc(-c3ccccc3)n2)cc1)C(=O)[O-])OCc1ccccc1.[Na+] [Example No. 2, O-[2-(2-Phenyl-4-oxazolyl)ethyl]-N-CBZ-L-tyrosine, sodium salt] | 67 % of day 0 value | 3.3 mM | –
23 | 146 to 151 °C | O=C(Cc1ccccc1)N[C@@H](Cc1ccc(OCCc2coc(-c3ccccc3)n2)cc1)C(=O)O [Example No. 5, O-[2-(2-Phenyl-4-oxazolyl)ethyl]-N-phenylacetyl-L-tyrosine] | 57 % of day 0 value | – | –
24 | 149 to 151 °C (dec.) | O=C(NC(Cc1cccc(OCCc2coc(-c3ccccc3)n2)c1)C(=O)O)OCc1ccccc1 (stereo not drawn) [Example No. 21, α-(3-[2-(2-Phenyl-4-oxazolyl)ethoxy]benzyl)-N-CBZ glycine] | 48 % of day 0 value | 1.4 mM | –

Source: US6541497B1, “Hypoglycemic and hypolipidemic compounds” (Eli Lilly and Company, priority 1996, dated 2003)
